# Source: ChEMBL document CHEMBL4842357, “Discovery of Novel Apigenin-Piperazine Hybrids as Potent and Selective Poly (ADP-Ribose) Polymerase-1 (PARP-1) Inhibitors for the Treatment of Cancer” (J Med Chem, 2021)
# Assays:
# [1] = Half life in Sprague-Dawley rat at 50 mg/kg, po; assay type: ADME, organism-based; settings: in vivo
# [2] = Total plasma clearance in Sprague-Dawley rat at 5 mg/kg, iv; assay type: ADME, organism-based
# [3] = Cmax in Sprague-Dawley rat at 50 mg/kg, po; assay type: ADME, organism-based; parameters: route oral, dose 50 mg/kg; settings: in vivo
# [4] = Toxicity in BALB/c mouse xenografted with human SK-OV-3 cells assessed as change in body weight at 25 to 50 mg/kg, po administered once daily measured for 28 days; assay type: organism-based; settings: in vivo, 672 h, dose 25-50 mg/kg, time 28 day
# [5] = Volume of distribution at steady state in Sprague-Dawley rat at 5 mg/kg, iv; assay type: ADME, organism-based; settings: in vivo, read-out: Vdss
# [6] = Subacute toxicity in ICR mouse assessed as death at 1000 mg/kg, po administered for 14 days; assay type: organism-based; settings: in vivo, 336 h, time 14 day
# [7] = Half life in Sprague-Dawley rat at 5 mg/kg, iv; assay type: ADME, organism-based; settings: in vivo
# [8] = Oral bioavailability in Sprague-Dawley rat at 50 mg/kg; assay type: ADME, organism-based; settings: in vivo
# [9] = Subacute toxicity in ICR mouse assessed as clinical abnormalities at 1000 mg/kg, po administered for 14 days; assay type: organism-based; settings: in vivo, 336 h, time 14 day
# [10] = Toxicity in ICR mouse assessed as effect on main visceral organs at 1000 mg/kg, ig administered for 14 days by H and E analysis; assay type: organism-based; settings: in vivo, po, 336 h, time 14 day
# [11] = Drug distribution in liver of mouse xenografted with human SK-OV-3 cells at 100 mg/kg, po after 9 hrs by LC-MS analysis; assay type: ADME, organism-based; settings: in vivo
# [12] = AUC(0 to infinity) in Sprague-Dawley rat at 5 mg/kg, iv; assay type: ADME, organism-based; parameters: route intravenous, time infinity, dose 5 mg/kg; settings: in vivo
# [13] = MRT in Sprague-Dawley rat at 5 mg/kg, iv; assay type: ADME, organism-based; settings: in vivo
# [14] = Acute toxicity in ICR mouse assessed as mortality at 200 to 1000 mg/kg, po administered for 14 days; assay type: organism-based; settings: in vivo, 336 h, dose 200-1000 mg/kg, time 14 day
# [15] = Cmax in Sprague-Dawley rat at 5 mg/kg, iv; assay type: ADME, organism-based; parameters: route intravenous, dose 5 mg/kg; settings: in vivo
# [16] = Acute toxicity in ICR mouse assessed as abnormalities at 200 to 1000 mg/kg, po administered for 14 days; assay type: organism-based; settings: in vivo, 336 h, dose 200-1000 mg/kg, time 14 day
# [17] = Subacute toxicity in ICR mouse assessed as weight abnormalities at 1000 mg/kg, po administered for 14 days; assay type: organism-based; settings: in vivo, 336 h, time 14 day
# [18] = Drug distribution in spleen of mouse xenografted with human SK-OV-3 cells at 100 mg/kg, po after 9 hrs by LC-MS analysis; assay type: ADME, organism-based; settings: in vivo
# [19] = Tmax in Sprague-Dawley rat at 50 mg/kg, po; assay type: ADME, organism-based; settings: in vivo
# SK-OV-3 = assay: Antitumor activity against human SK-OV-3 cells xenografted in BALB/c nude mouse assessed as relative tumor volume at 50 mg/kg, po administered once daily for 12 days; assay type: functional; settings: time 12 day
# [20] = AUC(0 to infinity) in Sprague-Dawley rat at 50 mg/kg, po; assay type: ADME, organism-based; parameters: time infinity, route oral, dose 50 mg/kg; settings: in vivo
# [21] = Drug distribution in tumor of mouse xenografted with human SK-OV-3 cells at 100 mg/kg, po after 1 hr by LC-MS analysis; assay type: ADME, organism-based, Neoplasm; settings: in vivo
# [22] = Toxicity in BALB/c nude mouse xenografted with human A549 cells assessed as change in body weight at 25 to 50 mg/kg, po administered once daily measured for 28 days in presence of CBP; assay type: organism-based; settings: in vivo, 672 h, dose 25-50 mg/kg, time 28 day
# [23] = MRT in Sprague-Dawley rat at 50 mg/kg, po; assay type: ADME, organism-based; settings: in vivo
# [24] = Tmax in Sprague-Dawley rat at 5 mg/kg, iv; assay type: ADME, organism-based; settings: in vivo
# [25] = Acute toxicity in ICR mouse assessed as change in blood routine at 1000 mg/kg, po administered only once at day 1 and measured every two days for 14 days; assay type: organism-based; settings: in vivo, 336 h, time 14 day
# [26] = Hepatotoxicity in ICR mouse assessed as effect on ALT level at 1000 mg/kg, po administered only once at day 1 and measured every two days for 14 days (reference value: 28.6 +/- 6.9 U/L); assay type: toxicity, organism-based; settings: in vivo, 336 h, time 14 day
# [27] = Stability in rat plasma assessed as compound remaining after 4 hrs; assay type: ADME, cell-free; settings: read-out: Stabilty
# [28] = Hepatotoxicity in ICR mouse assessed as effect on AST level at 1000 mg/kg, po administered only once at day 1 and measured every two days for 14 days (reference value: 61.5 +/- 3.7 U/L); assay type: toxicity, organism-based; settings: in vivo, 336 h, time 14 day
# [29] = Acute toxicity in ICR mouse assessed as change in body weight at 1000 mg/kg, po administered only once at day 1 and measured every two days for 14 days; assay type: organism-based; settings: in vivo, 336 h, time 14 day
# [30] = target: T1, Poly [ADP-ribose] polymerase 2 (Homo sapiens, UniProt Q9UGN5); assay: Binding affinity to recombinant human PARP-2 by SPR analysis
# [31] = Stability in rat plasma assessed as compound remaining after 0.5 hrs; assay type: ADME, cell-free; settings: read-out: Stabilty
# [32] = target: T2, Poly [ADP-ribose] polymerase 1 (Homo sapiens, UniProt P09874); assay: Inhibition of recombinant human full-length PARP-1 using biotinylated substrate
# CYP2C9 = CYP2C9 (Homo sapiens, UniProt P11712); assay: Inhibition of CYP2C9 (unknown origin) at 10 uM incubated for 10 to 30 mins in presence of NADPH regeneration system by microplate analysis relative to control; assay type: ADME; settings: time 10-30 min
# CYP2C19 = CYP2C19 (Homo sapiens, UniProt P33261); assay: Inhibition of CYP2C19 (unknown origin) at 10 uM incubated for 10 to 30 mins in presence of NADPH regeneration system by microplate analysis relative to control; assay type: ADME; settings: time 10-30 min
# [33] = target: T2, Poly [ADP-ribose] polymerase 1; assay: Binding affinity to recombinant human PARP-1 by SPR analysis
# [34] = Renal toxicity in ICR mouse assessed as effect on BUN level at 1000 mg/kg, po administered only once at day 1 and measured every two days for 14 days (reference value: 8.9 +/- 0.9 mmol/L); assay type: organism-based; settings: in vivo, 336 h, time 14 day
# CYP3A4 = CYP3A4 (Homo sapiens, UniProt P08684); assay: Inhibition of CYP3A4 (unknown origin) at 10 uM incubated for 10 to 30 mins in presence of NADPH regeneration system by microplate analysis relative to control; assay type: ADME; settings: time 10-30 min
# CYP2D6 = CYP2D6 (Homo sapiens, UniProt P10635); assay: Inhibition of CYP2D6 (unknown origin) at 10 uM incubated for 10 to 30 mins in presence of NADPH regeneration system by microplate analysis relative to control; assay type: ADME; settings: time 10-30 min
# [35] = target: T1, Poly [ADP-ribose] polymerase 2; assay: Inhibition of recombinant human full-length PARP-2 using biotinylated substrate
# CYP1A2 = target: T3, CYP1A2 (Homo sapiens, UniProt P05177); assay: Inhibition of CYP1A2 (unknown origin) at 10 uM incubated for 10 to 30 mins in presence of NADPH regeneration system by microplate analysis relative to control; assay type: ADME; settings: time 10-30 min
# T3 sequence (P05177 whole entry): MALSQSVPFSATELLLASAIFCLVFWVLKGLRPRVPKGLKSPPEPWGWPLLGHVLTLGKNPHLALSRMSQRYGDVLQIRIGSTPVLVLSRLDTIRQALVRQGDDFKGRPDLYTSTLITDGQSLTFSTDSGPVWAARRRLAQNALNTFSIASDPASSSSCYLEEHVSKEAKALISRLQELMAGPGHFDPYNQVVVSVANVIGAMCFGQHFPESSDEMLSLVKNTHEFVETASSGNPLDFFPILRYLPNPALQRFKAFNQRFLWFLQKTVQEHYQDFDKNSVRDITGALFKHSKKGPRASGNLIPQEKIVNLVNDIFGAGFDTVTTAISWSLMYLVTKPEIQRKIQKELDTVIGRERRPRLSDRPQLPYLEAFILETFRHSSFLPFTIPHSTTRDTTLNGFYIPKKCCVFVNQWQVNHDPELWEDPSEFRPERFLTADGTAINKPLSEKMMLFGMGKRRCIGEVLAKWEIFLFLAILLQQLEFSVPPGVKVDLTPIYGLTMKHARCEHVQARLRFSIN
# [36] = target: T1, Poly [ADP-ribose] polymerase 2; assay: Inhibition of PARP-2 (unknown origin)
# [37] = target: T2, Poly [ADP-ribose] polymerase 1; assay: Inhibition of PARP-1 (unknown origin)
# Homo sapiens [38] = organism: Homo sapiens; assay: Selectivity index, ratio of IC50 for inhibition of recombinant human full-length PARP-2 to IC50 for inhibition of recombinant human full-length PARP-1
# Homo sapiens [39] = organism: Homo sapiens; assay: Selectivity index, ratio of IC50 for PARP-2 (unknown origin) to IC50 for PARP-1 (unknown origin)
# T1 sequence (Q9UGN5 whole entry): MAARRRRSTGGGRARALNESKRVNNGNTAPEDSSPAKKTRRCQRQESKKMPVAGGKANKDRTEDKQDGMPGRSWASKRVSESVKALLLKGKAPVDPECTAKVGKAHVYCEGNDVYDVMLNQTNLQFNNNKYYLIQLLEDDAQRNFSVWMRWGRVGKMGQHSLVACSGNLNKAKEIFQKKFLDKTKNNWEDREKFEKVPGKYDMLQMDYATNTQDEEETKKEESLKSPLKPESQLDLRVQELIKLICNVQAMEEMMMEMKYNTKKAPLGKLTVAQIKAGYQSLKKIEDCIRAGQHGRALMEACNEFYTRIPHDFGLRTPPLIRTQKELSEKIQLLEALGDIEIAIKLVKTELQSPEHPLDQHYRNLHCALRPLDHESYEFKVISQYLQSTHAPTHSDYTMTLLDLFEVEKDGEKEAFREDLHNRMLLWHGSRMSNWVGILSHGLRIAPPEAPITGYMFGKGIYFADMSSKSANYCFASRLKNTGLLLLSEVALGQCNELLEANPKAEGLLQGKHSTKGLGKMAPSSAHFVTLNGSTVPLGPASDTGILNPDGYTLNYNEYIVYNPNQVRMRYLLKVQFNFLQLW
# T2 sequence (P09874 whole entry): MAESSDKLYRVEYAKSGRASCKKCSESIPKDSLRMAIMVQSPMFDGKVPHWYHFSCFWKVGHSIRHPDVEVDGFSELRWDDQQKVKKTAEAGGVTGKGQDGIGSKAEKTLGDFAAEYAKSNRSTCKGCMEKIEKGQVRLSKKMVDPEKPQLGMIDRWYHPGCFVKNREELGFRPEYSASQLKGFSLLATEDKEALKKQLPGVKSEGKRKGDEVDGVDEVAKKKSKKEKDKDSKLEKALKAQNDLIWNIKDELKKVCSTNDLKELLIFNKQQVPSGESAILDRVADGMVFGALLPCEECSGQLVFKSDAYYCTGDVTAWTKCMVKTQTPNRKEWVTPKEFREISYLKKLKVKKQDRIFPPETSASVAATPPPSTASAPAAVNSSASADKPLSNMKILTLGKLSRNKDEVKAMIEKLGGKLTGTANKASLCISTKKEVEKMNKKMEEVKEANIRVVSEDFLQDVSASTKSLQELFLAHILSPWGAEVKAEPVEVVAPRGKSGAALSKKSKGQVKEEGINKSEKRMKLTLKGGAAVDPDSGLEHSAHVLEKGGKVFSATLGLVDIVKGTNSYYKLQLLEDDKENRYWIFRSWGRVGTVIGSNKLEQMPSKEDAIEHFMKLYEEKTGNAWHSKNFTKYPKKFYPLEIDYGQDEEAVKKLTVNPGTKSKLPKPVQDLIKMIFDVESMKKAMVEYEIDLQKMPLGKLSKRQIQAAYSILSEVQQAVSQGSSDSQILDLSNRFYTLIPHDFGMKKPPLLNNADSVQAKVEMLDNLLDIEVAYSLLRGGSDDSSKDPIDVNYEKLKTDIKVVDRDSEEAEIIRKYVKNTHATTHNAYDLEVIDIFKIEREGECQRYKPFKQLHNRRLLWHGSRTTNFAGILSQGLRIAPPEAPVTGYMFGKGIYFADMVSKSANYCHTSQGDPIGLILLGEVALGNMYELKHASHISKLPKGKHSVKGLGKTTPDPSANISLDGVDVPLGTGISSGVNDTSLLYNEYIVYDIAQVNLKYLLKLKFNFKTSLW
# Sequence of CYP3A4 (P08684 whole entry): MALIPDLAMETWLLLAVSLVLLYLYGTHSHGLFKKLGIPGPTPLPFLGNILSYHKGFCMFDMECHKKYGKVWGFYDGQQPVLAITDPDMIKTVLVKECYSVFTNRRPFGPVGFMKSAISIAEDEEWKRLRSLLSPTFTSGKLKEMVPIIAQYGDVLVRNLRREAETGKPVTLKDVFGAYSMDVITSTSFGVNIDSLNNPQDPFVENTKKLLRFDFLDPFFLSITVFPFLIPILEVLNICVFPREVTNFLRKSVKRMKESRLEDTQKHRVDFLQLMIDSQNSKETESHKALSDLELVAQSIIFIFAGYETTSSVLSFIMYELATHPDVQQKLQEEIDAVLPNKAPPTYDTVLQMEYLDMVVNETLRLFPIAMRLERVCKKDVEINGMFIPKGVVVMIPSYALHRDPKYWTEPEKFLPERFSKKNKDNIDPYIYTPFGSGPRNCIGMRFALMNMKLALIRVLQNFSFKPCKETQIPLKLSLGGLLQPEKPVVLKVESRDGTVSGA
# Sequence of CYP2D6 (P10635 whole entry): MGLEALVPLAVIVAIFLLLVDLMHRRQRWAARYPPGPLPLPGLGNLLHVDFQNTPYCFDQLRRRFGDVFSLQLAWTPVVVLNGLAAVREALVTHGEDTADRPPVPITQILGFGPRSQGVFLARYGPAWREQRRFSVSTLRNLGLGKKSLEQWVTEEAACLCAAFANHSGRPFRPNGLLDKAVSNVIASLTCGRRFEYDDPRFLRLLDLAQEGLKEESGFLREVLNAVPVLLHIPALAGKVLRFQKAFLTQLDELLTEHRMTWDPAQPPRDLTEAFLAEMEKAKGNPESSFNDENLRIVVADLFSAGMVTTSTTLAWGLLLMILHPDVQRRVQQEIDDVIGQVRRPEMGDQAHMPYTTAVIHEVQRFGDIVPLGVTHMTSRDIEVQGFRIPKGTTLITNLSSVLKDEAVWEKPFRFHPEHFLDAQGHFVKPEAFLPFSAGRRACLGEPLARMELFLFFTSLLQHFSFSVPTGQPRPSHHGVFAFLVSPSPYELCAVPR
# Sequence of CYP2C19 (P33261 whole entry): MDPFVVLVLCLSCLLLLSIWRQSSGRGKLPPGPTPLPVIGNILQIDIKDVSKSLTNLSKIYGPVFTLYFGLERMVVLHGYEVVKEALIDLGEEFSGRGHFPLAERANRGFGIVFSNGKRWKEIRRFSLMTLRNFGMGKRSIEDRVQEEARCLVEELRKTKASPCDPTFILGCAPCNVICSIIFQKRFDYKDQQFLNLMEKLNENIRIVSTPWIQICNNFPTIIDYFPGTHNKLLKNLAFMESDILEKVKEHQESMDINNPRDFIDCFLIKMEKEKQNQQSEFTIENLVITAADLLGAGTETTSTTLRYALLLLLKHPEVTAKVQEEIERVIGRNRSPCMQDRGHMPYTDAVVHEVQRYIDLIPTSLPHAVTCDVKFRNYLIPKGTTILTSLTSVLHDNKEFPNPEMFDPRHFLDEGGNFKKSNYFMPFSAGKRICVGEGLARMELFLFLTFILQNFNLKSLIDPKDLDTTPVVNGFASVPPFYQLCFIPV
# Sequence of CYP2C9 (P11712 whole entry): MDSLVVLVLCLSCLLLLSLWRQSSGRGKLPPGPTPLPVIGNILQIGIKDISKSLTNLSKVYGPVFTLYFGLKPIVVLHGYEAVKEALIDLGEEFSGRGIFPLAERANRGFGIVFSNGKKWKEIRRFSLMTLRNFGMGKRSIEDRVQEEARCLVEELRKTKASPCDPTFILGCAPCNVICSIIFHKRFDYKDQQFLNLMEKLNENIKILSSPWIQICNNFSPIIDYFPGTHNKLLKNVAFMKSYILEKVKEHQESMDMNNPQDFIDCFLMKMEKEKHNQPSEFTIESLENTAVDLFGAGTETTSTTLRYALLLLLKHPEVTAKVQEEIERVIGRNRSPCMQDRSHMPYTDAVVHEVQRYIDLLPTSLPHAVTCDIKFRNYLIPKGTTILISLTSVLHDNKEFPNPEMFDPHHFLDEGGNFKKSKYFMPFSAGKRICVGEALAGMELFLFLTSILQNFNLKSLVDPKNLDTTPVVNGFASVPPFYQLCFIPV
compound,measurement,setting,value
Cl.Cl.O=c1cc(-c2ccc(O)cc2)oc2c(CN3CCN(Cc4cccs4)CC3)c(O)cc(O)c12,half-life,[1],10.7 h
same,clearance,[2],60.5 mL/min/kg
same,Cmax,[3],470 ng/mL
same,Activity,[4],Non-Toxic
same,Vd,[5],11.4 L/kg
same,Activity,[6],Non-Toxic
same,half-life,[7],3.19 h
same,bioavailability,[8],26.5%
same,Activity,[9],Non-Toxic
same,Activity,[10],Non-Toxic
same,Drug uptake,[11],Active
same,AUC(0-inf),[12],1370 ng·h/mL
same,MRT,[13],3.14 h
same,Activity,[14],Non-Toxic
same,Cmax,[15],2880 ng/mL
same,Activity,[16],Non-Toxic
same,Activity,[17],Non-Toxic
same,Drug uptake,[18],Not Active
same,Tmax,[19],1.5 h
same,Activity,SK-OV-3,0.74
same,AUC(0-inf),[20],3630 ng·h/mL
same,Drug uptake,[21],Active
same,Activity,[22],Non-Toxic
same,MRT,[23],13 h
same,Tmax,[24],1.8 min
O=c1cc(-c2ccc(O)cc2)oc2c(CN3CCN(Cc4cccs4)CC3)c(O)cc(O)c12,Activity,[25],Non-Toxic
same,Activity,[26],27.6 U/L
same,remaining at 4 h,[27],46.2%
same,Activity,[28],64.1 U/L
same,Activity,[29],Non-Toxic
same,Kd,[30],605 nM
same,remaining at 0.5 h,[31],83.4%
same,IC50,[32],14.7 nM
same,inhibition at 10 µM,CYP2C9,94.7%
same,inhibition at 10 µM,CYP2C19,70.4%
same,Kd,[33],55 nM
same,Activity,[34],9 mmol/L
same,inhibition at 10 µM,CYP3A4,93.4%
same,inhibition at 10 µM,CYP2D6,92.7%
same,IC50,[35],900 nM
same,inhibition at 10 µM,CYP1A2,85.2%
O=c1cc(-c2ccc(O)c(-c3c(O)cc(O)c4c(=O)cc(-c5ccc(O)cc5)oc34)c2)oc2cc(O)cc(O)c12 [AMENTOFLAVONE],IC50,[36],10300 nM
same,IC50,[32],187 nM
same,IC50,[37],0.2 nM
same,Ratio IC50,Homo sapiens [38],55.2
same,IC50,[35],10300 nM
same,Ratio IC50,Homo sapiens [39],52
